From patent US20240109915A1, “NOVEL ACC INHIBITORS” (Pfizer Inc., priority 2022, published 2024)

What follows are compounds tested against recombinant human ACC1 (rhACC1) (Homo sapiens (Human), UniProt Q13085) (assay: Transcreener ADP detection FP assay, direct inhibition of rhACC1). Details: Geomean IC50, n ≥ 2 unless * then n = 1; 50 μM ATP, 30 μM acetyl-CoA.
Type: biochemical
Description: The direct inhibition of ACC1 for the compounds of the present invention was determined using preparations of recombinant human ACC1 (rhACC1) (SEQ ID NO. 1)
Two liters of SF9 cells, infected with recombinant baculovirus containing full length human ACC1 cDNA, were suspended in ice-cold lysis buffer (25 mM Tris, pH 7.5; 150 mM NaCl; 10% glycerol; 5 mM imidazole (EMD Bioscience; Gibbstown, NJ); 2 mM TCEP (BioVectra; Charlottetown, Canada); Benzonase nuclease (10000 U/100 g cell paste; Novagen; Madison, WI); EDTA-free protease inhibitor cocktail (1 tab/50 ml; Roche Diagnostics; Mannheim, Germany). Cells were lysed by 3 cycles of freeze-thaw and centrifuged at 40,000×g for 40 minutes (4° C.). Supernatant was directly loaded onto a HisTrap FF crude column (GE Healthcare; Piscataway, NJ) and eluted with an imidazole gradient up to 0.5 M over 20 column volumes (CV). ACC1-containing fractions were pooled and diluted 1:5 with 25 mM Tris, pH 7.5, 2 mM TCEP, 10% glycerol and direct loaded onto a CaptoQ (GE Healthcare) column and eluted with an NaCl gradient up to 1 M over 20 CV's. Phosphate groups were removed from purified ACC1 by incubation with lambda phosphatase (100 U/10 μM target protein; New England Biolabs; Beverly, MA) for 14 hours at 4° C.; okadaic acid was added (1 μM final concentration; Roche Diagnostics) to inhibit the phosphatase. Purified ACC1 was exchanged into 25 mM Tris, pH 7.5, 2 mM TCEP, 10% glycerol, 0.5 M NaCl by 6 hour dialysis at 4° C. Aliquots were prepared and frozen at −80° C.
Measurement of rhACC1 Inhibition rhACC1 was assayed in a Corning #3820 (Corning, Tewksbury, MA) 384-well plate using the Transcreener ADP detection FP assay kit (Bellbrook Labs, Madison, Wisconsin) using the manufacturer's recommended conditions for a 50 μM ATP reaction. The final conditions for the assay were 50 mM HEPES, pH 7.2, 10 mM MgCl2, 7.5 mM tripotassium citrate, 2 mM DTT, 0.1 mg/mL BSA, 30 μM acetyl-CoA, 50 μM ATP, and 10 mM KHCO3. Typically, a […] was run for 60 min at room temp, and 10 μl of Transcreener stop and detect buffer was added and the combination incubated at room temp for an overnight (18 hours). The data was acquired on an Envision Fluorescence reader (PerkinElmer) using a 620 excitation Cy5 FP general dual mirror, 620 excitation Cy5 FP filter, 688 emission (S) and a 688 (P) emission filter.

| Compound | IC50 |
| --- | --- |
| 2-(tert-butyl)-1′-(4-chloro-5-methoxy-1H-indole-7-carbonyl)-5H-spiro[benzo[d]thiazole-6,4′-piperidin]-4(7H)-one [Example 37] | 1.3 nM |
| Cc1n[nH]c2c(C)cc(C(=O)N3CCC4(CC3)CC(=O)c3nc(C5(C)CC5)sc3C4)cc12 [Example 1, 1′-(3,7-dimethyl-2H-indazole-5-carbonyl)-2-(1-methylcyclopropyl)-5H-spiro[benzo[d]thiazole-6,4′-piperidin]-4(7H)-one] | 10.6 nM |
| Cc1n[nH]c2c(C)cc(C(=O)N3CCC4(CC3)CC(=O)c3nc(C(C)(C)C(C)C)sc3C4)cc12 [Example 3, 1′-(3,7-dimethyl-1H-indazole-5-carbonyl)-2-(2,3-dimethylbutan-2-yl)-5H-spiro[benzo[d]thiazole-6,4′-piperidin]-4(7H)-one] | 7.9 nM |
| CCc1nc2c(s1)CC1(CCN(C(=O)c3cc(C)c4[nH]nc(C)c4c3)CC1)CC2=O [Example 6, 1′-(3,7-dimethyl-1H-indazole-5-carbonyl)-2-ethyl-5H-spiro[benzo[d]thiazole-6,4′-piperidin]-4(7H)-one] | 45.5 nM |
| Cc1n[nH]c2c(C)cc(C(=O)N3CCC4(CC3)CC(=O)c3nc(C56CC(C5)C6)sc3C4)cc12 [Example 7, 2-(bicyclo[1.1.1]pentan-1-yl)-1′-(3,7-dimethyl-1H-indazole-5-carbonyl)-5H-spiro[benzo[d]thiazole-6,4′-piperidin]-4(7H)-one] | 11 nM |
| CNc1ccc2c(C)cc(C(=O)N3CCC4(CC3)CC(=O)c3nc(C(C)C)sc3C4)cc2n1 [Example 8, 2-isopropyl-1′-(5-methyl-2-(methylamino)quinoline-7-carbonyl)-5H-spiro[benzo[d]thiazole-6,4′-piperidin]-4(7H)-one] | 5.5 nM |
| CNc1ccc2c(C)cc(C(=O)N3CCC4(CC3)CC(=O)c3nc(C5(C)CC5)sc3C4)cc2n1 [Example 9, 1′-(5-methyl-2-(methylamino)quinoline-7-carbonyl)-2-(1-methylcyclopropyl)-5H-spiro[benzo[d]thiazole-6,4′-piperidin]-4(7H)-one] | 13.4 nM |
| COc1cc(C(=O)N2CCC3(CC2)CC(=O)c2nc(C(C)C)sc2C3)cc2c(C)nn(C)c12 [Example 10, 2-isopropyl-1′-(7-methoxy-1,3-dimethyl-1H-indazole-5-carbonyl)-5H-spiro[benzo[d]thiazole-6,4′-piperidin]-4(7H)-one] | 10 nM |

The remaining lines, values ahead:

| IC50 | Compound |
| --- | --- |
| 23.2 nM | CCOc1cc(C(=O)N2CCC3(CC2)Cc2sc(C(C)(C)C)nc2C(O)C3)cc2c(C)nn(C)c12 (racemic) [Example 109, rac-(R)-(2-(tert-butyl)-4-hydroxy-4,7-dihydro-5H-spiro[benzo[d]thiazole-6,4′-piperidin]-1′-yl)(7-ethoxy-1,3-dimethyl-1H-indazol-5-yl)methanone] |
| 4.5 nM | COc1cc(C(=O)N2CCC3(CC2)CC(=O)c2nc(C4(C)CC4)sc2C3)cc2c(C)nn(C)c12 [Example 11, 1′-(7-methoxy-1,3-dimethyl-1H-indazole-5-carbonyl)-2-(1-methylcyclopropyl)-5H-spiro[benzo[d]thiazole-6,4′-piperidin]-4(7H)-one] |
| 5.2 nM | [2H]C([2H])([2H])C(c1nc2c(s1)CC1(CCN(C(=O)c3cc(OC)c4c(c3)c(C)nn4C)CC1)CC2=O)(C([2H])([2H])[2H])C([2H])([2H])[2H] [Example 12, 1′-(7-methoxy-1,3-dimethyl-1H-indazole-5-carbonyl)-2-(2-(methyl-d3)propan-2-yl-1,1,1,3,3,3-d6)-5H-spiro[benzo[d]thiazole-6,4′-piperidin]-4(7H)-one] |
| 3.2 nM | CCNc1cnc2c(C)cc(C(=O)N3CCC4(CC3)CC(=O)c3nc(C(C)(C)C)sc3C4)cc2c1 [Example 18, 2-(tert-butyl)-1′-(3-(ethylamino)-8-methylquinoline-6-carbonyl)-5H-spiro[benzo[d]thiazole-6,4′-piperidin]-4(7H)-one] |
